Reference: paper PMC12655252, “Synthesis of 1H-Pyrrolo[3,2-g]isoquinoline Derivatives as Ligands Targeting Haspin Kinase” (Molecules, 2025)

Key:
Format in all cases: biochemical
HsCDK9/CyclinT = target: T1, HsCDK9/CyclinT (Homo sapiens, UniProt P50750); experiment: ADP-Glo in vitro kinase inhibition assay, CDK9/CyclinT; conditions: 10 μM ATP, read-out: CDK9 % residual activity; for remaining activity at 1 µM: 1 μM compound; for remaining activity at 10 µM: 10 μM compound
T1 construct: made in house; host or cells: Sf9 insect cells (baculovirus)
T1 sequence (P50750 whole entry): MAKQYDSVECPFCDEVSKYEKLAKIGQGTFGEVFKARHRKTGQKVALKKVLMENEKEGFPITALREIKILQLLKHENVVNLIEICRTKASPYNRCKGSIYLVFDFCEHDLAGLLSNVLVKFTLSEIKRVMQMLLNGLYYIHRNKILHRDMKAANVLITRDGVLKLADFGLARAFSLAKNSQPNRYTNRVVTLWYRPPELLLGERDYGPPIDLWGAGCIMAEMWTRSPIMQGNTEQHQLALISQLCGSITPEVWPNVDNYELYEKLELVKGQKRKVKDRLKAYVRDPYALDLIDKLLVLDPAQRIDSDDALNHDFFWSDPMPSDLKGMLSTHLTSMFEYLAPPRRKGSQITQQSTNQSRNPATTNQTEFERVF
T1 sequence (O60563 whole entry partner): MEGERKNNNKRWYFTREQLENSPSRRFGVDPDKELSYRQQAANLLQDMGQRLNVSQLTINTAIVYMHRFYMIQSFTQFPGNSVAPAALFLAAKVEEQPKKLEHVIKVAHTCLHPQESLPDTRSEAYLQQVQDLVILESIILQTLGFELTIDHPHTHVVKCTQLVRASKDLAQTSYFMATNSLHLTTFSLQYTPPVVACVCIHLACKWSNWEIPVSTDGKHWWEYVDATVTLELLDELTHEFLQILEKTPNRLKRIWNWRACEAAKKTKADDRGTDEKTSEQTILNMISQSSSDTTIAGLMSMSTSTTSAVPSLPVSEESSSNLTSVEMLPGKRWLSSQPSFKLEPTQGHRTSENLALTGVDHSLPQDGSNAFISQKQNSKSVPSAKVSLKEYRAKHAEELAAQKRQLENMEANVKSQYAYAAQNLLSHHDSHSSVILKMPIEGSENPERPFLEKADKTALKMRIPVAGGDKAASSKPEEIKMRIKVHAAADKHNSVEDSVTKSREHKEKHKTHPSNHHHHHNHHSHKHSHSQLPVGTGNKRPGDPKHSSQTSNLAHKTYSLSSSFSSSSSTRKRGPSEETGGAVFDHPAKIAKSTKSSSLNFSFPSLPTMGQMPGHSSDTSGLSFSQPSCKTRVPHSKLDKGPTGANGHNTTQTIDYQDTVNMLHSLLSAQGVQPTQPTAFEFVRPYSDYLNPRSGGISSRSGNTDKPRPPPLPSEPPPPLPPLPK
Method: (§1) We previouly reported that substitution at the 3-position with halogen atoms or pyridinyl or formyl groups was compatible with high potency toward Haspin kinase. To check if the current structural changes were in line with potent Haspin inhibition and high selectivity, enabling consideration of these compounds as possible targeting ligands for the PROTAC approach, compounds 2, 3, 8–11, and 15–17 were evaluated toward a panel of eight protein kinases, including Haspin, as well as other kinases known to be frequently cross-inhibited (CLK1, DYRK1A, CDK9/Cyclin T, GSK-3β, CK1ε, CDK5/p25, and Pim1) (Table 1). The percentage of residual kinase activity was evaluated at 10 μM and 1 μM compound concentrations. […].
(§2) Kinase inhibition was tested in 384-well plates using the ADP-GloTM assay kit (Promega, Madison, WI, USA) according to the procedure recommended by the manufacturer. Reactions were set up in a final volume of 6 μL in an appropriate kinase buffer (10 mM MgCl2, 1 mM EGTA, 1 mM DTT, 25 mM Tris-HCl pH 7.5, 50 μg/mL heparin) with either protein or peptide as the substrate in the presence of 10 μM ATP. To stop the kinase reaction, 6 μL of ADP-GloTM Kinase Reagent was added after 30 min at 30 °C. Then, after 50 min of incubation at room temperature (RT), 12 μL of Kinase Detection Reagent was added. The transmitted signal was measured after 1 h at RT using the Envision (Perkin Elmer, Waltham, MA, USA) microplate luminometer and expressed in relative light units (RLU). In order to determine the half-maximal inhibitory concentration (IC50), all assays were performed in duplicate in the absence or presence of increasing doses of the tested compounds. GraphPad Prism10 software (GraphPad Software, San Diego, CA, USA) was used to fit dose–response curves and to determine the IC50 values. Kinase activities are given as percentages of maximal activity, i.e., measured in the absence of inhibitor. Peptide substrates were obtained from Proteogenix (Schiltigheim, France).
(§3) The following protein kinases were analyzed in this study: CDK5/p25 (human, vector pGEX-2T, expressed in bacteria; kindly provided by Dr. J. H. Wang) was assayed with 0.8 μg/μL of histone H1 as substrate; HsCDK9/CyclinT (NP_001252/KAI4065659, cloned in pTEFb vector, expressed by baculovirus in Sf9 insect cells) were assayed with 0.27 μg/μL of the following peptide: […], as substrate; HsCK1ε (NP_001885, cloned in pFAST-BAC vector, expressed in Sf9 insect cells) was assayed with 0.022 μg/μL of the following peptide: […]pAYSITA (“Sp” stands for phosphorylated serine) as CK1-specific substrate; HsGSK3β (AAH12760, cloned in pFAST-BAC, expressed by baculovirus in Sf9 insect cells) were assayed with 0.010 μg/μL of GS-1 peptide, a GSK-3-selective substrate ([…]pEDEEE); HsHaspin-kd (NP_114171, kinase domain, amino acids 470–798 cloned in pGEX-6P-3, expressed in bacteria) was assayed with 0.007 μg/μL of histone H3 (1–21) peptide ([…]) as substrate; Pim-1 (KAI4018123, expressed in bacteria) was assayed with 0.8 μg/μL of histone H1 as substrate; HsCLK1 (NP_004062, cloned in pFAST-BAC, expressed in Sf9 insect cells) was assayed with 0.027 μg/μL of the peptide: […]; RnDYRK1A-kd (Rattus norvegicus, amino acids 1–499, pGEX-2TK, expressed in bacteria, gift from Dr. W. Becker, Aachen, Germany) was tested in the presence of 0.033 μg/μL of the peptide: […].

HsGSK3β = target: T2, HsGSK3β (Homo sapiens, UniProt P49841); experiment: ADP-Glo in vitro kinase inhibition assay, GSK3β; conditions: 10 μM ATP, read-out: GSK3 % residual activity; for remaining activity at 1 µM: 1 μM compound; for remaining activity at 10 µM: 10 μM compound
T2 construct: made in house; host or cells: Sf9 insect cells (baculovirus)
T2 sequence (P49841 whole entry): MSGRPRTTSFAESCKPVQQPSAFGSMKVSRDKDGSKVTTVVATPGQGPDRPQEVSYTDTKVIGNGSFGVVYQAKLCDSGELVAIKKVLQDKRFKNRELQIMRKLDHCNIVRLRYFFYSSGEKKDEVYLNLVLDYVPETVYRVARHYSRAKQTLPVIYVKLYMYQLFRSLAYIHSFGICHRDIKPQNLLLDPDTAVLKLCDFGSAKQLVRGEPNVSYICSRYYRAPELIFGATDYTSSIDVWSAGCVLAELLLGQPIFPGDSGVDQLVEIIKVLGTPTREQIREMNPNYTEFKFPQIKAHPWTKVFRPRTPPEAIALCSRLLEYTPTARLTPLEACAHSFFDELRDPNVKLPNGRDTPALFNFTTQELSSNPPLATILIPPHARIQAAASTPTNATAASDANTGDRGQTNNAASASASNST
Method: as §1, §2, §3

HsCK1ε = target: T3, HsCK1ε (Homo sapiens, UniProt P49674); experiment: ADP-Glo in vitro kinase inhibition assay, CK1ε; conditions: 10 μM ATP, read-out: CK1 % residual activity; for remaining activity at 1 µM: 1 μM compound; for remaining activity at 10 µM: 10 μM compound
T3 construct: made in house; host or cells: Sf9 insect cells
T3 sequence (P49674 whole entry): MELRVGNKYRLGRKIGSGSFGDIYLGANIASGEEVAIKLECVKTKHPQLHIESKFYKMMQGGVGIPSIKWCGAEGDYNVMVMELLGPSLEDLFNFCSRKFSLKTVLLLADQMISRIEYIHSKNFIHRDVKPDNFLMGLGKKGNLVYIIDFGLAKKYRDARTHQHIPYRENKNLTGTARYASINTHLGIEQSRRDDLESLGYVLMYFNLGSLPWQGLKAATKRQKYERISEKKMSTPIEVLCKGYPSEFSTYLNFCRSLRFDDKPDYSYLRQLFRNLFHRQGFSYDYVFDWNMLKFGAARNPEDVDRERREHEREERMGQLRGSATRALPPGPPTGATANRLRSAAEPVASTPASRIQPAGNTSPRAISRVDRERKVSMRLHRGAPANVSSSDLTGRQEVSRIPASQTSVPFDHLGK
Method: as §1, §2, §3

HsCLK1 = target: T4, HsCLK1 (Homo sapiens, UniProt P49759); experiment: ADP-Glo in vitro kinase inhibition assay, CLK1; conditions: 10 μM ATP; for remaining activity at 1 µM: 1 μM compound; for remaining activity at 1 µM / remaining activity at 10 µM: read-out: CLK1 % residual activity; for remaining activity at 10 µM: 10 μM compound
T4 construct: made in house; host or cells: Sf9 insect cells
T4 sequence (P49759 whole entry): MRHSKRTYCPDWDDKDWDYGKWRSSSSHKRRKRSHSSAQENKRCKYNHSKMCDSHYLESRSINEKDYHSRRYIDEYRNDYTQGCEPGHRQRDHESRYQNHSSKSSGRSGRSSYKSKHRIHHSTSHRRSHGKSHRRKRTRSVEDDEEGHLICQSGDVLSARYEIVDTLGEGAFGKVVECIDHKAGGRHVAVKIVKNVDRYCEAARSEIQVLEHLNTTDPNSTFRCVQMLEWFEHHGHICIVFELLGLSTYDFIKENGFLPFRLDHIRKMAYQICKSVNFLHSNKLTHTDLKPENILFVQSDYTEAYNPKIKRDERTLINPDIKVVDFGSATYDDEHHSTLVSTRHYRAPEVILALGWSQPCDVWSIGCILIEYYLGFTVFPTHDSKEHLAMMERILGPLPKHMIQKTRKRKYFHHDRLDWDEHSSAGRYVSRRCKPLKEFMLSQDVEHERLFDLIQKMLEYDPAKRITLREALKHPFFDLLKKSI
Method: as §1, §2, §3

Pim-1 = target: T5, Pim-1 (Homo sapiens, UniProt P11309); experiment: ADP-Glo in vitro kinase inhibition assay, Pim-1; conditions: 10 μM ATP; for remaining activity at 1 µM: 1 μM compound; for remaining activity at 1 µM / remaining activity at 10 µM: read-out: PIM1 % residual activity; for IC50: read-out: PIM1 IC50; for remaining activity at 10 µM: 10 μM compound
T5 construct: made in house; host or cells: bacteria
T5 sequence (P11309 whole entry): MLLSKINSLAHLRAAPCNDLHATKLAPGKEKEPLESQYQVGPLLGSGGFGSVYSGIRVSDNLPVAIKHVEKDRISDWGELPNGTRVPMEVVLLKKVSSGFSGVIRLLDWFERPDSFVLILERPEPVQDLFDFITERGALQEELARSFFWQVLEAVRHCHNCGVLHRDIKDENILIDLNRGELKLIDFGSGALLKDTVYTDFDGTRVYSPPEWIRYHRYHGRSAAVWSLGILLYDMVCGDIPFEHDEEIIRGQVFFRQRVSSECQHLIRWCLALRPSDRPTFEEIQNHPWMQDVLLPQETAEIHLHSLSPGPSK
Method: as §1, §2, §3

RnDYRK1A-kd = target: T6, RnDYRK1A-kd (Rattus norvegicus, UniProt Q63470); experiment: ADP-Glo in vitro kinase inhibition assay, DYRK1A; conditions: 10 μM ATP; for remaining activity at 1 µM: 1 μM compound; for remaining activity at 1 µM / remaining activity at 10 µM: read-out: DYRK1A % residual activity; for remaining activity at 10 µM: 10 μM compound
T6 construct: Rattus norvegicus, amino acids 1–499, pGEX-2TK; made in house; host or cells: bacteria
Method: as §1, §2, §3

HsHaspin-kd = target: T7, HsHaspin-kd (Homo sapiens, UniProt Q8TF76); experiment: ADP-Glo in vitro kinase inhibition assay, Haspin; conditions: for remaining activity at 1 µM: 1 μM compound; for remaining activity at 1 µM / IC50 / remaining activity at 10 µM: 10 μM ATP, duplicate; for remaining activity at 1 µM / remaining activity at 10 µM: read-out: Haspin % residual activity; for remaining activity at 10 µM: 10 μM compound; for SI: selectivity index = IC50 second most inhibited kinase/IC50 Haspin: second most inhibited kinase named in parentheses below the value (PIM1 or CLK1)
T7 construct: kinase domain, amino acids 470–798 cloned in pGEX-6P-3; made in house; host or cells: bacteria
T7 sequence (Q8TF76 470-798): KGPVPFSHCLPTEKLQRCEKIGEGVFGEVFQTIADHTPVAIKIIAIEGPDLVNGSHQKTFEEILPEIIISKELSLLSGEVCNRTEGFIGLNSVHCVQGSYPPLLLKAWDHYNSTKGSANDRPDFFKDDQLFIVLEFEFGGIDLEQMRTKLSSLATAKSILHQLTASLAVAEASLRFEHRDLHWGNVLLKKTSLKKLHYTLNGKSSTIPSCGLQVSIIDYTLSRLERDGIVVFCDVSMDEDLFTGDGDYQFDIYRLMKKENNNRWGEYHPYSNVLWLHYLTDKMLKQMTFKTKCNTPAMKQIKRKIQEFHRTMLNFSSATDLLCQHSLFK
Method: as §1, §2, §3

Row | Structure (SMILES) | remaining activity at 1 µM (HsCDK9/CyclinT) [%] | remaining activity at 10 µM (HsCDK9/CyclinT) [%] | remaining activity at 1 µM (HsGSK3β) [%] | remaining activity at 10 µM (HsGSK3β) [%] | remaining activity at 1 µM (HsCK1ε) [%] | remaining activity at 10 µM (HsCK1ε) [%] | remaining activity at 1 µM (HsCLK1) [%] | remaining activity at 10 µM (HsCLK1) [%] | remaining activity at 1 µM (Pim-1) [%] | IC50 (Pim-1) [nM] | remaining activity at 10 µM (Pim-1) [%] | remaining activity at 1 µM (RnDYRK1A-kd) [%] | IC50 (RnDYRK1A-kd) [nM] | remaining activity at 10 µM (RnDYRK1A-kd) [%] | remaining activity at 1 µM (HsHaspin-kd) [%] | IC50 (HsHaspin-kd) [nM] | remaining activity at 10 µM (HsHaspin-kd) [%] | SI: selectivity index = IC50 second most inhibited kinase/IC50 Haspin (HsHaspin-kd) | IC50 (HsCLK1) [nM]
1 | Nc1ccc(-c2c[nH]c3cc4cnccc4cc23)cn1 [Compound 3, 5-(1H-Pyrrolo[3,2-g]isoquinolin-3-yl)pyridin-2-amine] | 83 | 44 | 80 | 58 | 78 | 63 | 59 | 18 | 17 | 93.7 | 7 | 15 | 212 | 0 | 7 | 10.6 | 1 | 8.8 | –
2 | COC(=O)/C=C/c1c[nH]c2cc3cnccc3cc12 [Compound 8, Methyl (E)-3-(1H-Pyrrolo[3,2-g]isoquinolin-3-yl)prop-2-enoate] | 79 | 51 | 78 | 71 | 90 | 77 | 55 | 22 | 26 | 404 | 8 | 43 | 1130 | 16 | 11 | 15.5 | 6 | 26.1 | –
3 | c1cc2cc3c(-c4cc[nH]n4)c[nH]c3cc2cn1 [Compound 15, 3-(1H-Pyrazol-3-yl)-1H-pyrrolo[3,2-g]isoquinoline] | – | – | 100 | 86 | 100 | 48 | 32 | 4 | 44 | 222 | 0 | 39 | 324 | 1 | 0 | 30.6 | 0 | > 7 | 503
4 | c1cc2cc3c(-c4cn[nH]c4)c[nH]c3cc2cn1 [Compound 16, 3-(1H-Pyrazol-4-yl)-1H-pyrrolo[3,2-g]isoquinoline] | – | – | 94 | 17 | 77 | 12 | 4 | 0 | 20 | – | 0 | 11 | 163 | 0 | 0 | 12.4 | 0 | 8.2 | 102
5 | c1c[nH]c(-c2c[nH]c3cc4cnccc4cc23)c1 [Compound 17, 3-(1H-Pyrrol-2-yl)-1H-pyrrolo[3,2-g]isoquinoline] | 76 | 39 | 71 | 65 | 92 | 81 | 47 | 36 | 91 | – | 33 | 69 | – | 19 | 6 | 81.3 | 0 | – | –
